Test results reported in ChEMBL document CHEMBL5154765, “Design, synthesis, and biological evaluation of novel spiro[pyrrolidine-2,3'-quinolin]-2'-one derivatives as potential chitin synthase inhibitors and antifungal agents” (Eur J Med Chem, 2022).
Values after ≈ are worked out from the molar mass of the structure shown.

Key:
Aspergillus fumigatus [1] = test: Antifungal activity against Aspergillus fumigatus GIMCC 3.19 assessed as reduction in fungal growth incubated for 24 hrs by two fold broth dilution method; type: functional
Aspergillus flavus [2] = test: Antifungal activity against Aspergillus flavus ATCC 16870 assessed as reduction in fungal growth incubated for 24 hrs by two fold broth dilution method; type: functional
Candida tropicalis = test: Inhibition of Candida tropicalis ATCC750 chitin synthase at 300 ug/ml using UDP-GlcNAc as substrate incubated for 1 hr by microplate reader analysis relative to control; conditions: dose 300.0 µg/ml
[3] = Inhibition of Candida tropicalis ATCC750 chitin synthase using UDP-GlcNAc as substrate incubated for 1 hr by microplate reader analysis
Candida albicans [4] = test: Antifungal activity against Candida albicans ATCC 76615 assessed as reduction in fungal growth incubated for 24 hrs by two fold broth dilution method; type: functional
Cryptococcus neoformans [5] = test: Antifungal activity against Cryptococcus neoformans ATCC 32719 assessed as reduction in fungal growth incubated for 24 hrs by two fold broth dilution method; type: functional
Candida albicans [6] = test: Antifungal activity against micafungin resistant Candida albicans ATCC 76615 assessed as reduction in fungal growth incubated for 24 hrs by two fold broth dilution method; type: functional
Aspergillus fumigatus [7] = test: Antifungal activity against Aspergillus fumigatus GIMCC 3.19 assessed as reduction in fungal growth in presence of sorbitol incubated for 24 hrs by two fold broth dilution method; type: functional
Candida albicans [8] = test: Antifungal activity against Candida albicans ATCC 76615 assessed as reduction in fungal growth in presence of sorbitol incubated for 24 hrs by two fold broth dilution method; type: functional
Aspergillus fumigatus [9] = test: Antifungal activity against fluconazole resistant Aspergillus fumigatus GIMCC 3.19 assessed as reduction in fungal growth incubated for 24 hrs by two fold broth dilution method; type: functional
Cryptococcus neoformans [10] = test: Antifungal activity against Cryptococcus neoformans ATCC 32719 assessed as reduction in fungal growth in presence of sorbitol incubated for 24 hrs by two fold broth dilution method; type: functional
Candida albicans [11] = test: Antifungal activity against fluconazole resistant Candida albicans ATCC 76615 assessed as reduction in fungal growth incubated for 24 hrs by two fold broth dilution method; type: functional
Aspergillus flavus [12] = test: Antifungal activity against fluconazole resistant Aspergillus flavus ATCC 16870 assessed as reduction in fungal growth incubated for 24 hrs by two fold broth dilution method; type: functional
Aspergillus flavus [13] = test: Antifungal activity against Aspergillus flavus ATCC 16870 assessed as reduction in fungal growth in presence of sorbitol incubated for 24 hrs by two fold broth dilution method; type: functional
Cryptococcus neoformans [14] = test: Antifungal activity against fluconazole resistant Cryptococcus neoformans ATCC 32719 assessed as reduction in fungal growth incubated for 24 hrs by two fold broth dilution method; type: functional
Aspergillus flavus [15] = test: Antifungal activity against Aspergillus flavus ATCC 16870 incubated for 72 hrs in presence of polyoxin B by checker board assay; type: functional
Candida albicans [16] = test: Antifungal activity against Candida albicans ATCC 76615 assessed as fluconazole MIC incubated for 72 hrs by checker board assay; type: functional
Aspergillus flavus [17] = test: Synergistic antifungal activity against Aspergillus flavus ATCC 16870 assessed as fractional inhibitory concentration index incubated for 72 hrs in presence of fluconazole by checker board assay; type: functional
Aspergillus flavus [18] = test: Antifungal activity against Aspergillus flavus ATCC 16870 assessed as polyoxin B MIC incubated for 72 hrs by checker board assay; type: functional
Aspergillus flavus [19] = test: Antifungal activity against Aspergillus flavus ATCC 16870 incubated for 72 hrs in presence of fluconazole by checker board assay; type: functional
Cryptococcus neoformans [20] = test: Antifungal activity against Cryptococcus neoformans ATCC 32719 incubated for 72 hrs in presence of fluconazole by checker board assay; type: functional
Aspergillus fumigatus [21] = test: Synergistic antifungal activity against Aspergillus fumigatus GIMCC 3.19 assessed as fractional inhibitory concentration index incubated for 72 hrs in presence of polyoxin B by checker board assay; type: functional
Cryptococcus neoformans [22] = test: Antifungal activity against Cryptococcus neoformans ATCC 32719 incubated for 72 hrs in presence of polyoxin B by checker board assay; type: functional
Aspergillus fumigatus [23] = test: Antifungal activity against Aspergillus fumigatus GIMCC 3.19 assessed as fluconazole MIC incubated for 72 hrs by checker board assay; type: functional
Cryptococcus neoformans [24] = test: Synergistic antifungal activity against Cryptococcus neoformans ATCC 32719 assessed as fractional inhibitory concentration index incubated for 72 hrs in presence of fluconazole by checker board assay; type: functional
Candida albicans [25] = test: Synergistic antifungal activity against Candida albicans ATCC 76615 assessed as fractional inhibitory concentration index incubated for 72 hrs in presence of polyoxin B by checker board assay; type: functional
Cryptococcus neoformans [26] = test: Synergistic antifungal activity against Cryptococcus neoformans ATCC 32719 assessed as fractional inhibitory concentration index incubated for 72 hrs in presence of polyoxin B by checker board assay; type: functional
Aspergillus flavus [27] = test: Synergistic antifungal activity against Aspergillus flavus ATCC 16870 assessed as fractional inhibitory concentration index incubated for 72 hrs in presence of polyoxin B by checker board assay; type: functional
Cryptococcus neoformans [28] = test: Antifungal activity against Cryptococcus neoformans ATCC 32719 assessed as fluconazole MIC incubated for 72 hrs by checker board assay; type: functional
Candida albicans [29] = test: Antifungal activity against Candida albicans ATCC 76615 assessed as polyoxin B MIC incubated for 72 hrs by checker board assay; type: functional
Aspergillus fumigatus [30] = test: Antifungal activity against Aspergillus fumigatus GIMCC 3.19 incubated for 72 hrs in presence of fluconazole by checker board assay; type: functional
Aspergillus fumigatus [31] = test: Antifungal activity against Aspergillus fumigatus GIMCC 3.19 assessed as polyoxin B MIC incubated for 72 hrs by checker board assay; type: functional
Aspergillus flavus [32] = test: Antifungal activity against Aspergillus flavus ATCC 16870 assessed as fluconazole MIC incubated for 72 hrs by checker board assay; type: functional
Aspergillus fumigatus [33] = test: Antifungal activity against Aspergillus fumigatus GIMCC 3.19 incubated for 72 hrs in presence of polyoxin B by checker board assay; type: functional
Candida albicans [34] = test: Synergistic antifungal activity against Candida albicans ATCC 76615 assessed as fractional inhibitory concentration index incubated for 72 hrs in presence of fluconazole by checker board assay; type: functional
Candida albicans [35] = test: Antifungal activity against Candida albicans ATCC 76615 incubated for 72 hrs in presence of polyoxin B by checker board assay; type: functional
Aspergillus fumigatus [36] = test: Synergistic antifungal activity against Aspergillus fumigatus GIMCC 3.19 assessed as fractional inhibitory concentration index incubated for 72 hrs in presence of fluconazole by checker board assay; type: functional
Cryptococcus neoformans [37] = test: Antifungal activity against Cryptococcus neoformans ATCC 32719 assessed as polyoxin B MIC incubated for 72 hrs by checker board assay; type: functional
Candida albicans [38] = test: Antifungal activity against Candida albicans ATCC 76615 incubated for 72 hrs in presence of fluconazole by checker board assay; type: functional

For `Cc1ccc(NC(=O)/C=C/C(=O)N2CCCC23Cc2ccccc2NC3=O)cc1` (stereo not given), the MIC (Aspergillus fumigatus [1]) was 64 µg/mL (≈ 164 µM), the MIC (Aspergillus flavus [2]) was 16 µg/mL (≈ 41.1 µM) and the inhibition (Candida tropicalis) was 46.4%. For the same compound, the IC50 [3] was 1070 µM, the MIC (Candida albicans [4]) was 32 µg/mL (≈ 82.2 µM) and the MIC (Cryptococcus neoformans [5]) was 64 µg/mL (≈ 164 µM).

With `O=C(/C=C/C(=O)N1CCCC12Cc1ccccc1NC2=O)Nc1ccccc1Cl` (stereo not given) the MIC (Aspergillus fumigatus [1]) was 4 µg/mL (≈ 9.76 µM), the MIC (Candida albicans [6]) was 32 µg/mL (≈ 78.1 µM) and the MIC (Aspergillus fumigatus [7]) was 64 µg/mL. For the same compound, the MIC (Candida albicans [8]) was 32 µg/mL, the MIC (Aspergillus fumigatus [9]) was 32 µg/mL (≈ 78.1 µM) and the MIC (Aspergillus flavus [2]) was 8 µg/mL (≈ 19.5 µM). For the same compound, the inhibition (Candida tropicalis) was 76.1%, the IC50 [3] was 120 µM and the MIC (Cryptococcus neoformans [10]) was 64 µg/mL. The MIC (Candida albicans [11]) was 32 µg/mL (≈ 78.1 µM), the MIC (Candida albicans [4]) was 4 µg/mL (≈ 9.76 µM) and the MIC (Cryptococcus neoformans [5]) was 8 µg/mL (≈ 19.5 µM). It also gave an MIC (Aspergillus flavus [12]) of 16 µg/mL (≈ 39 µM), an MIC (Aspergillus flavus [13]) of 128 µg/mL and an MIC (Cryptococcus neoformans [14]) of 32 µg/mL (≈ 78.1 µM).

In the case of `COc1cc(NC(=O)/C=C/C(=O)N2CCCC23Cc2ccccc2NC3=O)c(OC)cc1Cl` (stereo not given), the MIC (Aspergillus fumigatus [1]) is reported as 32 µg/mL (≈ 68.1 µM), the MIC (Aspergillus flavus [2]) is reported as 16 µg/mL (≈ 34 µM) and the inhibition (Candida tropicalis) is reported as 67.9%. The IC50 [3] was 200 µM, the MIC (Candida albicans [4]) was 8 µg/mL (≈ 17 µM) and the MIC (Cryptococcus neoformans [5]) was 32 µg/mL (≈ 68.1 µM).

For `O=C(/C=C/C(=O)N1CCCC12Cc1ccccc1NC2=O)Nc1cccc2ccccc12` (stereo not given), the MIC (Aspergillus fumigatus [1]) was 16 µg/mL (≈ 37.6 µM), the MIC (Aspergillus flavus [2]) was 16 µg/mL (≈ 37.6 µM) and the inhibition (Candida tropicalis) was 53.6%. For the same compound, the IC50 [3] was 570 µM, the MIC (Candida albicans [4]) was 8 µg/mL (≈ 18.8 µM) and the MIC (Cryptococcus neoformans [5]) was 64 µg/mL (≈ 150 µM).

Work on `Cc1ccccc1NC(=O)/C=C/C(=O)N1CCCC12Cc1ccccc1NC2=O` (stereo not given) yielded an MIC (Aspergillus fumigatus [1]) of 8 µg/mL (≈ 20.5 µM), an MIC (Aspergillus flavus [2]) of 16 µg/mL (≈ 41.1 µM) and an inhibition (Candida tropicalis) of 47.2%. For the same compound, the IC50 [3] was 970 µM, the MIC (Candida albicans [4]) was 8 µg/mL (≈ 20.5 µM) and the MIC (Cryptococcus neoformans [5]) was 64 µg/mL (≈ 164 µM).

With `COc1cccc(NC(=O)/C=C/C(=O)N2CCCC23Cc2ccccc2NC3=O)c1` (stereo not given) the MIC (Aspergillus fumigatus [1]) was 32 µg/mL (≈ 78.9 µM), the MIC (Aspergillus flavus [2]) was 16 µg/mL (≈ 39.5 µM) and the inhibition (Candida tropicalis) was 48.3%. The IC50 [3] was 770 µM, the MIC (Candida albicans [4]) was 8 µg/mL (≈ 19.7 µM) and the MIC (Cryptococcus neoformans [5]) was 32 µg/mL (≈ 78.9 µM).

`O=C(/C=C/C(=O)N1CCCC12Cc1ccccc1NC2=O)Nc1ccc(F)cc1` (stereo not given) gave an MIC (Aspergillus fumigatus [1]) of 8 µg/mL (≈ 20.3 µM), an MIC (Aspergillus flavus [15]) of 8 µg/mL and an MIC (Candida albicans [16]) of 1 µg/mL. For the same compound, the “fractional inhibitory concentration index (FICI)” value (Aspergillus flavus [17]) was 0.75, the MIC (Aspergillus flavus [18]) was 4 µg/mL and the MIC (Aspergillus flavus [19]) was 4 µg/mL. The MIC (Candida albicans [6]) was 64 µg/mL (≈ 163 µM), the MIC (Aspergillus fumigatus [7]) was 128 µg/mL and the MIC (Cryptococcus neoformans [20]) was 2 µg/mL. The MIC (Candida albicans [8]) was 32 µg/mL, the “fractional inhibitory concentration index (FICI)” value (Aspergillus fumigatus [21]) was 0.75 and the MIC (Aspergillus fumigatus [9]) was 256 µg/mL (≈ 651 µM). For the same compound, the MIC (Aspergillus flavus [2]) was 8 µg/mL (≈ 20.3 µM), the MIC (Cryptococcus neoformans [22]) was 8 µg/mL and the MIC (Aspergillus fumigatus [23]) was 2 µg/mL. The inhibition (Candida tropicalis) was 77.9%, the “fractional inhibitory concentration index (FICI)” value (Cryptococcus neoformans [24]) was 0.75 and the IC50 [3] was 130 µM. For the same compound, the “fractional inhibitory concentration index (FICI)” value (Candida albicans [25]) was 0.75, the MIC (Cryptococcus neoformans [10]) was 64 µg/mL and the MIC (Candida albicans [11]) was 64 µg/mL (≈ 163 µM). For the same compound, the “fractional inhibitory concentration index (FICI)” value (Cryptococcus neoformans [26]) was 1.5, the “fractional inhibitory concentration index (FICI)” value (Aspergillus flavus [27]) was 1.5 and the MIC (Cryptococcus neoformans [28]) was 4 µg/mL. It also gave an MIC (Candida albicans [29]) of 4 µg/mL, an MIC (Aspergillus fumigatus [30]) of 2 µg/mL and an MIC (Candida albicans [4]) of 4 µg/mL (≈ 10.2 µM). For the same compound, the MIC (Aspergillus fumigatus [31]) was 2 µg/mL, the MIC (Cryptococcus neoformans [5]) was 8 µg/mL (≈ 20.3 µM) and the MIC (Aspergillus flavus [12]) was 32 µg/mL (≈ 81.3 µM). The MIC (Aspergillus flavus [32]) was 2 µg/mL, the MIC (Aspergillus fumigatus [33]) was 4 µg/mL and the MIC (Aspergillus flavus [13]) was 64 µg/mL. The “fractional inhibitory concentration index (FICI)” value (Candida albicans [34]) was 0.75, the MIC (Cryptococcus neoformans [14]) was 256 µg/mL (≈ 651 µM) and the MIC (Candida albicans [35]) was 1 µg/mL. For the same compound, the “fractional inhibitory concentration index (FICI)” value (Aspergillus fumigatus [36]) was 0.75, the MIC (Cryptococcus neoformans [37]) was 8 µg/mL and the MIC (Candida albicans [38]) was 2 µg/mL.

Work on `COc1ccc(NC(=O)/C=C/C(=O)N2CCCC23Cc2ccccc2NC3=O)cc1` (stereo not given) yielded an MIC (Aspergillus fumigatus [1]) of 8 µg/mL (≈ 19.7 µM), an MIC (Aspergillus flavus [2]) of 32 µg/mL (≈ 78.9 µM) and an inhibition (Candida tropicalis) of 50.9%. The IC50 [3] was 590 µM, the MIC (Candida albicans [4]) was 16 µg/mL (≈ 39.5 µM) and the MIC (Cryptococcus neoformans [5]) was 32 µg/mL (≈ 78.9 µM).
